These results are taken from PMC6481325, “Novel N,N-dialkyl cyanocinnamic acids as monocarboxylate transporter 1 and 4 inhibitors” (Oncotarget, 2019).

Where two headings read alike, the source gives them in different places.

By IC50 is commonly meant the concentration at which inhibition is half-maximal.

The target of this assay is T1, MCT4 (Homo sapiens, UniProt O15427).
T1 construct: These cells predominantly express MCT4 as confirmed by Western blot and quantitative PCR analysis; host or cells: MDA-MB-231
T1 sequence (O15427 2-465 limits assumed): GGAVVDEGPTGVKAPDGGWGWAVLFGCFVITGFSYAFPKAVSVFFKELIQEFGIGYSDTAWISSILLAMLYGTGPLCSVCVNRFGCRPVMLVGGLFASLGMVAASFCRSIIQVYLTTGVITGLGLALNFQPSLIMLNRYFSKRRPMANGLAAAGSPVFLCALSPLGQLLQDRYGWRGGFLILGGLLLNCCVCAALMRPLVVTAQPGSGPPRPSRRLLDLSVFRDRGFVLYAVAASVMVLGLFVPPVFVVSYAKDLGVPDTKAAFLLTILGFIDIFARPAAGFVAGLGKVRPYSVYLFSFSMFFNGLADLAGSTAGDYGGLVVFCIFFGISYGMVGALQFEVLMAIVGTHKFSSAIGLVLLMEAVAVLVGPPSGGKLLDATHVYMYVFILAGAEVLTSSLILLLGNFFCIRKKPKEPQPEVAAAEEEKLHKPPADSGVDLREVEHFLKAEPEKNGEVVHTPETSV
T1 sequence (P35613 140-385 partner limits assumed): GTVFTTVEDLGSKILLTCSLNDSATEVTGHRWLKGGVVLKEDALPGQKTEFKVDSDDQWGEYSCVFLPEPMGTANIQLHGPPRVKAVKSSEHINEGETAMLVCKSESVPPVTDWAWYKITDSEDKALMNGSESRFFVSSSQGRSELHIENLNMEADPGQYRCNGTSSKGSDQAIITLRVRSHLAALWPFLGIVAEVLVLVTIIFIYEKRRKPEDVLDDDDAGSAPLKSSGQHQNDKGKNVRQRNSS
In words: L-[14C]-lactate uptake study in MCT4 expressing MDA-MB-231 cells. Format: cell-based. To be noted: read-out: MCT4 IC50. As for the experimental part:
In this study, an L-[^14C]-lactate based transport assay was developed by us to quantify MCT4 transport and its inhibition by test compounds. […] For the MCT4 transport assay, the pH of HEPES buffer with L-[^14C]-lactate was adjusted to 7.0 such that lactate influx into the cells was aided by the pH gradient. […] Test compounds were diluted to working concentration in HEPES buffer (140 mM NaCl, 5 mM KCl, 2 mM CaCl2, 2 mM MgCl2, 10 mM HEPES, pH 7.0) containing 3 μM L-[^14C]-lactate (Perkin Elmer) and 2 μM L-lactate. […] HEPES buffer was replaced with 250 μL test solution. After 1 hour, media was replaced with 500 μL ice-cold stop buffer (0.1 mM CHC solution in HBS, pH 7.4) and the plates were placed on ice. Cells were washed twice with ice-cold stop buffer and solubilized using 250 μL of 0.1 M NaOH in 5% Triton-X (Millipore Sigma). A 150 μL aliquot from each well was added to 4 mL EcoLite(+)™ scintillation fluid (MP Biomedicals) and radioactivity was determined by scintillation spectrometry. Inhibition by each test solution was calculated as a percentage of the maximum control uptake. CHC and dimethylsulfoxide (DMSO) were used as controls. […]

For `COc1cc(N(c2ccccc2)c2ccccc2)ccc1/C=C(\C#N)C(=O)O` [Phenyl (9)], the IC50 stood at 0.023 µM (Figure 1A and text, lactate uptake); 0.018 ± 0.008 µM (Supplementary Table 1, average ± SEM).
